# According to patent US20250084095A1, “Aminopyrimidine Derivatives as Cyclin-Dependent Kinase Inhibitors” (Accutar Biotechnology Inc., priority 2023, published 2025):
# Legend:
# [1] = test system: Phospho-Rb (Ser807/811) in MCF7 cells; experiment: Phospho-Rb expression inhibition in MCF7 cells quantified by in cell Western; type: cell-based, human; details: Homo sapiens, MCF7, 24 h, 24 hours, in cell Western, read-out: MCF7 pRb IC50
# Description: MCF7 cells were obtained from American Type Culture Collection (ATCC, HTB-22). MCF7 cells were plated in 96-well plates (VWR #10062-900, or Coming #3904) in 90 μL culture medium at a density of 20,000 cells/well in the DMEM growth medium containing 10%/FBS and 1% Penicillin Streptomycin, and then incubated at 37° C. overnight. The following day, the test compound was administered to the cells by using 1000× compound stock solution prepared in DMSO at various concentrations. 1000× compound stock solution was first diluted in culturing medium to 10×, then 10 μL compound medium was added to each well in the cell plates. After administration of the compound, the cells were then incubated at 37° C. for 24 h. Upon completion, the cells were washed with PBS briefly. 150 μL/well of 4% formaldehyde was added and the plates were incubated at room temperature for 20 min. The cells were washed with PBS briefly, and permeabilized with 150 µL/well of ice cold 100% methanol for 10 min. The cells were washed with PBS briefly and blocked with 100 µL/well LI-COR blocking buffer for 1 h at room temperature with gentle shaking. The cells were incubated overnight at 4° C. with 50 μL primary antibody rabbit anti-Phospho-Rb (Ser807/811) (1: 500, Cell Signaling, #8516) and anti-Rb (1:200, Santa Cruz, sc-73598) diluted in Intercept Blocking Buffer (LI-COR, #927-60001) containing 0.1% Tween 20. The next day, the cells were washed with 200 μL PBS containing 0.1% Tween 20, 5×5 mins at room temperature with gentle shaking, and incubated with 50 μL secondary antibody, IRDye® 800CW Goat anti-Rabbit IgG (1:1000, LI-COR, #926-32211) and FRDye® 680RD Goat anti-Mouse IgG (1:1000, LI-COR, #926-68070), in LI-COR […] blocking buffer with 0.2% Tween 20 for 1 h at room temperature with gentle shaking. The cells were washed with 200 μL PBS containing 0.1% Tween 20, 5×5 min at room temperature with gentle shaking. The cells were washed with PBS for 5 mins. 100 μL fresh PBS was added to each well and the plates were imaged on a LI-COR Odyssey CLX plate reader.
# MCF7 cells were obtained from American Type Culture Collection (ATCC, HTB-22). SW1573-CDK6 KO and SW1573-CDK4 KO cells were generated by the CRISPR-Cas9 technology. All cells were plated in 96-well plates (VWR #10062-900, or Corning #3904) in 90 uL culture medium at a density of 20,000 cells/well in the respective growth medium containing 10% FBS and 1% Penicillin Streptomycin, and then incubated at 37° C. overnight. The following day, the test compound was administered to the cells by using 1000× compound stock solution prepared in DMSO at various concentrations. 1000× compound stock solution was first diluted in culturing medium to 10×, then 10 uL compound medium was added to each well in the cell plates. After administration of the compound, the cells were then incubated at 37° C. for 24 hours. Upon completion, the cells were washed with PBS briefly. 150 uL/well of 4% formaldehyde was added and the plates were incubated at room temperature for 20 mins. The cells were washed with PBS briefly, and permeabilized with 150 uL/well of ice cold 100% methanol for 10 mins. The cells were washed with PBS briefly and blocked with 100 uL/well LI-COR blocking buffer for 1 hr at room temperature with gentle shaking. The cells were incubated overnight at 4° C. with 50 uL primary antibody rabbit anti-Phospho-Rb (Ser807/811) (1: 500, Cell Signaling, #8516) and anti-Rb (1:200, Santa Cruz, sc-73598) diluted in Intercept Blocking Buffer (LI-COR, #927-60001) containing 0.1% Tween 20. The next day, the cells were washed with 200 uL PBS containing 0.1% Tween 20, 5×5 mins at room temperature with gentle shaking, and incubated with 50 uL secondary antibody, IRDye® 800CW Goat anti-Rabbit IgG (1:1000, LI-COR, #926-32211) and IRDye®680RD Goat anti-Mouse IgG (1:1000, LI-COR, #926-68070), in LI-COR blocking buffer with 0.2% Tween 20 for 1 hr at room temperature with gentle shaking. […]
# [2] = test system: 22RV1 cells; experiment: Cell growth inhibition of 22RV1 cells (CellTiter-Glo); type: cell-based; details: Homo sapiens, 22Rv1, 120 h, 5 days, CellTiter-Glo, read-out: 22RV1 Cell Growh GI50
# Description: For cell growth assay, 22RV1 (ATCC, CRL-2505) cells were seeded in 96-well plates at 1000 cells/well in 90 μl of RPMI1640 growth medium containing 20% FBS and 1% Penicillin Streptomycin, and then incubated at 37° C. overnight. The following day, the test compound was administered to the cells by using 1000× compound stock solution prepared in DMSO at various concentrations. 1000× compound stock solution was first diluted in culturing medium to 10×, then 10 uL compound medium was added to each well in the cell plates. After administration of the compound, the cells were then incubated at 37° C. for 5 days. Upon completion, the plates were equilibrated at room temperature for approximately 10 min. 100 μl of CellTiter-Glo® Reagent (Promega) was added to each well. The plates were then incubated at room temperature for 10 min and luminescence was recorded by EnSpire plate reader (PerkinElmer).
# 22RV1 cells were obtained from American Type Culture Collection (ATCC, CRL-2505). 22RV1 cells were seeded in 96-well plates at 1000 cells/well in 90 μL of RPMI1640 growth medium containing 10% FBS and 1% Penicillin Streptomycin, and then incubated at 37° C. overnight. The following day, the test compound was administered to the cells by using 1000× compound stock solution prepared in DMSO at various concentrations. […], then 10 uL compound medium was added to each well in the cell plates. After administration of the compound, the cells were then incubated at […] for 5 days. Upon completion, the plates were equilibrated at room temperature for approximately 10 minutes. 100 μL of CellTiter-Glo® Reagent (Promega) was added to each well. The plates were then incubated at room temperature for 10 minutes and luminescence was recorded by EnSpire plate reader (PerkinElmer).
Compound,IC50 [1] [nM],GI50 [2] [nM]
"CC(C)n1c(N2C(=O)OC[C@H]2C)nc2c(F)cc(-c3nc(N[C@@H]4C[C@H]5CO[C@H](O5)[C@H]4O)ncc3Cl)cc21 [Compound 296, (R)-3-(6-(5-chloro-2-(((1S,3R,4S,5R)-4-hydroxy-6,8-dioxabicyclo[3.2.1]octan-3-yl)amino)pyrimidin-4-yl)-4-fluoro-1-isopropyl-1H-benzo[d]imidazol-2-yl)-4-methyloxazolidin-2-one]",150 to 1000,450 to 3000
"Cc1c(CN2CC[C@@H](F)C2)n(C(C)C)c2cc(-c3nc(N[C@@H]4C[C@H]5CO[C@H](O5)[C@H]4O)ncc3F)ccc2c1=O [Compound 292, 7-(5-fluoro-2-(((1S,3R,4S,5R)-4-hydroxy-6,8-dioxabicyclo[3.2.1]octan-3-yl)amino)pyrimidin-4-yl)-2-(((R)-3-fluoropyrrolidin-1-yl)methyl)-1-isopropyl-3-methylquinolin-4(1H)-one]",40 to 150,120 to 450
"CC(C)n1c(CN2CC[C@@H](F)C2)cc(=O)c2ccc(-c3nc(N[C@@H]4C[C@H]5CO[C@H](O5)[C@H]4O)ncc3F)cc21 [Compound 210, 7-(5-fluoro-2-(((1S,3R,4S,5R)-4-hydroxy-6,8-dioxabicyclo[3.2.1]octan-3-yl)amino)pyrimidin-4-yl)-2-(((R)-3-fluoropyrrolidin-1-yl)methyl)-1-isopropylquinolin-4(1H)-one]",150 to 1000,450 to 3000
"CC(C)n1c(C(C)(C)O)c(C#N)c2c(F)cc(-c3nc(N[C@@H]4C[C@H]5CO[C@H](O5)[C@H]4O)ncc3Cl)cc21 [Compound 26, 6-(5-chloro-2-(((1S,3R,4S,5R)-4-hydroxy-6,8-dioxabicyclo[3.2.1]octan-3-yl)amino)pyrimidin-4-yl)-4-fluoro-2-(2-hydroxypropan-2-yl)-1-isopropyl-1H-indole-3-carbonitrile]",40 to 150,≤ 120
"Cc1c(CN2C[C@@H](C)OC2=O)n(C(C)C)c2cc(-c3nc(N[C@@H]4C[C@H]5CO[C@H](O5)[C@H]4O)ncc3F)ccc2c1=O [Compound 271, (R)-3-((7-(5-fluoro-2-(((1S,3R,4S,5R)-4-hydroxy-6,8-dioxabicyclo[3.2.1]octan-3-yl)amino)pyrimidin-4-yl)-1-isopropyl-3-methyl-4-oxo-1,4-dihydroquinolin-2-yl)methyl)-5-methyloxazolidin-2-one]",150 to 1000,> 3000
"C[C@@H]1COc2c(-c3nc(N[C@@H]4C[C@H]5CO[C@H](O5)[C@H]4O)ncc3Cl)cc(F)c3nc(C(C)(C)O)n1c23 [Compound 38, (1S,3R,4S,5R)-3-((5-chloro-4-((R)-8-fluoro-2-(2-hydroxypropan-2-yl)-3-methyl-3,4-dihydro-5-oxa-1,2a-diazaacenaphthylen-6-yl)pyrimidin-2-yl)amino)-6,8-dioxabicyclo[3.2.1]octan-4-ol]",≤ 40,120 to 450
"CC(C)n1c(CN2[C@@H](C)COC[C@@H]2C)cc(=O)c2ccc(-c3nc(N[C@@H]4C[C@H]5CO[C@H](O5)[C@H]4O)ncc3F)cc21 [Compound 209, 2-(((3S,5S)-3,5-dimethylmorpholino)methyl)-7-(5-fluoro-2-(((1S,3R,4S,5R)-4-hydroxy-6,8-dioxabicyclo[3.2.1]octan-3-yl)amino)pyrimidin-4-yl)-1-isopropylquinolin-4(1H)-one]",40 to 150,120 to 450
"CC(C)(O)c1ccnc2c(F)cc(-c3nc(N[C@@H]4C[C@H]5CO[C@H](O5)[C@H]4O)ncc3Cl)cc12 [Compound 251, (1S,3R,4S,5R)-3-((5-chloro-4-(8-fluoro-4-(2-hydroxypropan-2-yl)quinolin-6-yl)pyrimidin-2-yl)amino)-6,8-dioxabicyclo[3.2.1]octan-4-ol]",40 to 150,≤ 120
"CC(C)N1CCOc2c(F)cc(-c3nc(N[C@@H]4C[C@H]5CO[C@H](O5)[C@H]4O)ncc3Cl)cc21 [Compound 173, (1S,3R,4S,5R)-3-((5-chloro-4-(8-fluoro-4-isopropyl-3,4-dihydro-2H-benzo[b][1,4]oxazin-6-yl)pyrimidin-2-yl)amino)-6,8-dioxabicyclo[3.2.1]octan-4-ol]",40 to 150,120 to 450
"Cc1c(C(=O)N2[C@@H](C)COC[C@@H]2C)n(C(C)C)c2cc(-c3nc(N[C@@H]4C[C@H]5CO[C@H](O5)[C@H]4O)ncc3Cl)ccc2c1=O [Compound 213, 7-(5-chloro-2-(((1S,3R,4S,5R)-4-hydroxy-6,8-dioxabicyclo[3.2.1]octan-3-yl)amino)pyrimidin-4-yl)-2-((3S,5S)-3,5-dimethylmorpholine-4-carbonyl)-1-isopropyl-3-methylquinolin-4(1H)-one]",> 1000,> 3000
"CC(C)(O)c1cnc2cc(-c3nc(N[C@@H]4C[C@H]5CO[C@H](O5)[C@H]4O)ncc3Cl)cc(F)c2n1 [Compound 295, (1S,3R,4S,5R)-3-((5-chloro-4-(8-fluoro-2-(2-hydroxypropan-2-yl)quinoxalin-6-yl)pyrimidin-2-yl)amino)-6,8-dioxabicyclo[3.2.1]octan-4-ol]",150 to 1000,> 3000
"CC(C)(O)c1cnc2c(F)cc(-c3nc(N[C@@H]4C[C@H]5CO[C@H](O5)[C@H]4O)ncc3Cl)cc2c1 [Compound 253, (1S,3R,4S,5R)-3-((5-chloro-4-(8-fluoro-3-(2-hydroxypropan-2-yl)quinolin-6-yl)pyrimidin-2-yl)amino)-6,8-dioxabicyclo[3.2.1]octan-4-ol]",150 to 1000,120 to 450
"CC(C)n1c(C(C)(C)O)nc2c(F)cc(-c3nc(N[C@@H]4C[C@H]5CO[C@H](O5)[C@H]4O)ncc3F)cc21 [Compound 27, (1S,3R,4S,5R)-3-((5-fluoro-4-(4-fluoro-2-(2-hydroxypropan-2-yl)-1-isopropyl-1H-benzo[d]imidazol-6-yl)pyrimidin-2-yl)amino)-6,8-dioxabicyclo[3.2.1]octan-4-ol]",40 to 150,120 to 450
